# Tested on: HCT-8 cells
# Assay: Dye uptake flow cytometry MDR assay
# Assay type: cell-based, human
# Set-up: key: Kolmogorov-Smirnov D statistic comparing fluorescence distributions
# Settings: HCT-8, dye uptake
# Description: Cells were grown on tissue culture dishes and on the day of assay were trypsinized and washed twice with warm (37° C.) phosphate-buffered saline (PBS). Post-wash, the cells were re-suspended in warm phenol red indicator-free medium at a density of 1×10^6/ml. For each detection set, sixteen tubes (5 samples in triplicates plus non-stained control for background fluorescence) in numbered tubes each containing 5×10^5/cells (0.5 ml) were prepared. […] After incubation for 5 min at 37° C., 0.25 ml of warm medium with Fluo-8™ AM probe (5 μM final concentration) or Rhod-4™ AM probe (2 μM final concentration) was added to each tube excluding non-stained control that receives plain medium and cells were incubated for 30 min at 37° C. and analyzed immediately by flow cytometry. In the second set of the tubes, the reaction was stopped by rapid centrifugation (1 min) at relatively low speed (200×g). After wash with ice-cold PBS and discarding the supernatant, cells were re-suspended in 0.5 ml of ice-cold medium and kept on ice until flow cytometry analysis. The third set of cells simply was spun down (1 min, 200×g) to remove the excess of the probe, resuspended in ice-cold medium and kept on ice until flow cytometry analysis.
# Flow cytometry experiments were performed using a FACS Calibur benchtop flow cytometer (BD Biosciences) equipped with a blue (488 nm) laser, and the signals were registered in the FITC (530/30 filter), PE (585/42 filter) and PerCP (670 LP filter) channels. Fluo-8™ dye fluorescence was measured in the FL1 channel, and Rhod-4™ dye fluorescence—in the FL2 channel. Flow cytometry data were analyzed by comparison of median fluorescence or using Kolmogorov-Smirnov statistics [Young, J Histochem Cytochem 25:935-941 (1977)] or by calculating MAF values (MDR Activity Factor) using the following formula: MAF=100*((MFIinh−MFI0)/MFIinh), where MFIinh and MFI0 are mean fluorescence intensity values measured in the presence and absence of inhibitor [Hollo et al., Biochem Piophys Acta. 1191:384-388 (1994)].
# Both human ileocecal colorectal carcinoma cell line HCT-8 (reported to over-express P-gp and, to a lesser extent, MRP [Hunter et al., Br J Cancer. 64:437-444 (1991); Collington et al., Biochem Pharmacol 44:417-424 (1992)] and hepatocellular carcinoma Hep G2 (reported to over-express MRP [Roelofsen et al., Gastroenterology 112:511-521 (1997), Cantz et al., Am J Physiol Gastrointest Liver Physiol. 278:G522-G531 (2000)] were obtained from ATCC. HCT-8 cells were routinely cultured in RPMI-1640 Medium with 2 mM L-glutamine, 10 mM HEPES, 1 mM sodium piruvate, 4.5 g/L glucose, 1.5 g/L sodium bicarbonate (ATCC), supplemented with 10% horse serum (ATCC) and 100 U/ml penicillin, 100 ug/ml streptomycin (Sigma-Aldrich, St. Louis, Mo.). Hep G2 cells were routinely cultured in Eagle's Minimum Essential Medium with low glucose (ATCC), supplemented with 10% heat inactivated fetal bovine serum (ATCC) and 100 U/ml penicillin, 100 ug/ml streptomycin (Sigma-Aldrich, St. Louis, Mo.). Cell cultures were maintained in a humidified incubator at 37° C., with 5% CO2 atmosphere. Stock solutions of the probes and inhibitors were prepared, as described in Examples 2 and 3. Cells were grown in tissue culture dishes and on the day of assay were treated according to a dye uptake protocol and analyzed by flow cytometry, as described in Example 3.
smiles,measurement,value
CC(=O)OCOC(=O)CN(CC(=O)OCOC(C)=O)c1ccccc1OCCOc1cc(-c2c3ccc(=O)cc-3oc3cc(OCOC(C)=O)ccc23)ccc1N(CC(=O)OCOC(C)=O)CC(=O)OCOC(C)=O [Fluo-8 ™ AM],"D-value, CyclosporinA",0.68
same,"D-value, MK-571",0.34
same,"D-value, Novobiocin",0.22
same,"D-value, Verapamil",0.71

# Source: patent publication US9097673B2, “Processes and kits for determining multi-drug resistance of cells” (ENZO LIFE SCIENCES, INC., priority 2010, dated 2015)
